Laboratory results as given in patent US20090209578A1, “CHEMICAL COMPOUNDS” (PFIZER INC, priority 2005, published 2009).

Target: HIV-1 fusion (gp160 induced cell-cell fusion; HeLa P4 cell line expressing CCR5 and CD4 / CHO-Tat10 cell line) (Homo sapiens, UniProt P51681)
Assay: gp160 induced cell-cell fusion assay
Type: cell-based
Details: HeLa P4 / CHO-Tat10 cells, read-out: IC50
Source text: Biol., 60, 147-52 (1996); and/or by using the intracellular calcium mobilisation assays as described by the same authors, and/or inhibiting cell fusion following procedures disclosed in Bradley et al., J Biomol Screen 9, 516-24 (2004).
The gp160 induced cell-cell fusion assay uses a HeLa P4 cell line and a CHO-Tat10 cell line.
The HeLa P4 cell line expresses CCR5 and CD4 and has been transfected with HIV-1 LTR-β-Galactosidase. The media for this cell line is Dulbecco modified eagle's medium (D-MEM) (without L-glutamine) containing 10% foetal calf serum (FCS), 2 mM L-glutamine, penicillin/streptomycin (Pen/Strep; 100 U/mL penicillin+[…] streptomycin), and 1 μg/ml puromycin.
The CHO cell line is a Tat (transcriptional trans activator)-expressing clone from a CHO JRR17.1 cell line that has been transfected with pTat puro plasmid. The media for this cell line is rich medium for mammalian cell culture originally developed at Roswell Park Memorial Institute RPMI1640 (without L-glutamine) containing 10% FCS, 2 mM L-glutamine, 0.5 mg/ml Hygromycin B and 12 µg/ml puromycin. The CHO JRR17.1 line expresses gp160 (JRFL) and is a clone that has been selected for its ability to fuse with a CCR5/CD4 expressing cell line.
Upon cell fusion, Tat present in the CHO cell is able to transactivate the HIV-1 long terminal repeat (LTR) present in the HeLa cell leading to the expression of the β-Galactosidase enzyme. This expression is then measured using a Fluor Ace™ β-Galactosidase reporter assay kit (Bio-Rad cat no. 170-3150). This kit is a quantitative fluorescent assay that determines the level of expression of β-galactosidase using 4-methylumbelliferyl-galactopyranoside (MUG) as substrate. β-Galactosidase hydrolyses the fluorogenic substrate resulting in release of the fluorescent molecule 4-methylumbelliferone (4MU). Fluorescence of 4-methylumbelliferone is then measured on a fluorometer using an excitation wavelength of 360 nm and emission wavelength of 460 nm.
Compounds that inhibit fusion will give rise to a reduced signal and, following solubilisation in an appropriate solvent and dilution in culture medium, a dose-response curve for each compound can be used to calculate IC50 values.

Sequence of HIV-1 fusion (gp160 induced cell-cell fusion; HeLa P4 cell line expressing CCR5 and CD4 / CHO-Tat10 cell line) (P51681 whole entry, the tested form may be a part): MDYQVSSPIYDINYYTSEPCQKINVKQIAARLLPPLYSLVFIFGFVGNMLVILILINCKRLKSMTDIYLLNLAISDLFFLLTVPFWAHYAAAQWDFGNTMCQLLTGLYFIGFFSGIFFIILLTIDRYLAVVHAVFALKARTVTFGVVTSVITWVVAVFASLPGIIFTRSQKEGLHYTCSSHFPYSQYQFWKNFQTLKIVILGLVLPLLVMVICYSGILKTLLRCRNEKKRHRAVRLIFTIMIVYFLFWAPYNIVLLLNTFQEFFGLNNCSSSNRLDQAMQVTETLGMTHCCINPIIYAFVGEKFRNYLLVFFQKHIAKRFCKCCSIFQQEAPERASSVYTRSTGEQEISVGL

SMILES	IC50 [nM]
COC(=O)N1CCc2nc(C)n(C3CCN(C(C)CC(NC(=O)C4CCC(F)(F)CC4)c4ccccc4)CC3)c2C1 (mixture of isomers) [Example 6]	1
COC(=O)N1CCc2nc(C)n(C3CCN(C(C)CC(NC(=O)CC4CC4)c4ccccc4)CC3)c2C1 (mixture of isomers) [Example 7]	0.9
COC(=O)N1CCc2nc(C)n(C3CCN(C(C)CC(NC(=O)C4CCS(=O)(=O)CC4)c4ccccc4)CC3)c2C1 (mixture of isomers) [Example 8]	6
COC(=O)N1CCc2nc(C)n(C3CCN(C(C)CC(NC(=O)C4CCC4)c4ccccc4)CC3)c2C1 (mixture of isomers) [Example 10]	0.3
COC(=O)N1CCc2nc(C)n(C3CCN(C(C)CC(NC(=O)C(C)C)c4ccccc4)CC3)c2C1 (mixture of isomers) [Example 11]	0.6
COC(=O)N1CCc2nc(C)n(C3CCN(C(C)CC(NC(=O)C4CC4)c4ccccc4)CC3)c2C1 (mixture of isomers) [Example 12]	0.6
COC(=O)N1CCc2nc(C)n(C3CCN(C(C)CC(NC(=O)OC(C)C)c4ccccc4)CC3)c2C1 (mixture of isomers) [Example 14]	17.2
COC(=O)N1CCc2c(nc(C)n2C2CCN(C(C)CC(NC(C)=O)c3cccc(F)c3)CC2)C1 (mixture of isomers) [Example 76]	5.5
COC(=O)N1CCc2c(nc(C)n2C2CCN(C(C)CC(NC(=O)C(C)C)c3cccc(F)c3)CC2)C1 (mixture of isomers) [Example 77]	0.6
COC(=O)N1CCc2c(nc(C)n2C2CCN(C(C)CC(NC(=O)C3CC3)c3cccc(F)c3)CC2)C1 (mixture of isomers) [Example 78]	1.8
CC(CC(NC(=O)C1CCC(F)(F)CC1)c1ccccc1)N1CCC(n2ccnc2)CC1 (mixture of isomers) [Example 127]	4.7
Cc1nc(C2CCN(C(C)CC(NC(=O)C3CCC(F)(F)CC3)c3ccccc3)CC2)no1 (mixture of isomers) [Example 128]	26
CCc1noc(C2CCN(C(C)CC(NC(=O)C3CCC(F)(F)CC3)c3ccccc3)CC2)n1 (mixture of isomers) [Example 129]	8.6
CC(C)Cc1nnc(C2CCN(C(C)CC(NC(=O)C3CCC(F)(F)CC3)c3ccccc3)CC2)o1 (mixture of isomers) [Example 130]	5.9
CC(C)c1nc(C2CCN(C(C)CC(NC(=O)C3CCC(F)(F)CC3)c3ccccc3)CC2)no1 (mixture of isomers) [Example 131]	20.2
COC(=O)N1CCc2nc(C)n(C3CCN(C(C)C[C@H](NC(=O)OC(C)(C)C)c4ccccc4)CC3)c2C1 (single isomer, unassigned) [Example 2]	14
COC(=O)N1CCc2nc(C)n(C3CCN(C(C)C[C@H](NC(=O)OC(C)(C)C)c4ccccc4)CC3)c2C1 (single isomer, unassigned) [Example 3]	434
COC(=O)N[C@@H](CC(C)N1CCC(n2c(C)nc3c2CN(C(=O)OC)CC3)CC1)c1ccccc1 (single isomer, unassigned) [Example 13A]	37.1
COC(=O)N[C@@H](CC(C)N1CCC(n2c(C)nc3c2CN(C(=O)OC)CC3)CC1)c1ccccc1 (single isomer, unassigned) [Example 13B]	600
Cc1nc2c(n1C1CCN(C(C)C[C@H](NC(=O)C3CCC3)c3ccccc3)CC1)CN(C(=O)C(C)C)CC2 (single isomer, unassigned) [Example 24]	0.2
Cc1nc2c(n1C1CCN(C(C)C[C@H](NC(=O)CC(C)C)c3ccccc3)CC1)CN(C(=O)C(C)C)CC2 (single isomer, unassigned) [Example 28]	79.2
Cc1nc2c(n1C1CCN(C(C)C[C@H](NC(=O)C(C)C)c3ccccc3)CC1)CN(C(=O)C(C)C)CC2 (single isomer, unassigned) [Example 29]	29.9
Cc1nc2c(n1C1CCN(C(C)C[C@H](NC(=O)C3CCC3)c3ccccc3)CC1)CN(C(=O)C(C)C)CC2 (single isomer, unassigned) [Example 30]	11
